Source: patent US5204311A, “Ethanediimidic acid bis[(arylalkylidene)hydrazide] color-formers” (Minnesota Mining and Manufacturing Company, priority 1991, dated 1993)
“Also recorded” adds a separate entry of the source.

What was measured:
[1] = Color formation with zinc salts (zinc rosinate); type: physicochemical
Experimental: (§1) This color observed on the CF sheet was yellow. […] Solubility in a solvent blend of tributyl phosphate, diethyl phthalate and cyclohexane (capsule solvents for preparing carbonless copy-paper) was >9% by weight. Thus the ligand is eminently suitable for encapsulation. The ligand is not volatile at 71 ° C. overnight.
This color observed on the CF sheet was yellow.

[2] = Volatility: transfer from simulated donor sheet to receptor sheet; type: physicochemical; conditions: 71 ° C. overnight
Source text: The method utilized in the experiments to both define and evaluate the level of volatility was as follows. A single sheet piece of Grade #10 (20×12 cm) cheesecloth (AF & F., Item No. 588033, American Fiber and Finishing, Inc., Burlington, Mass.) was placed between a simulated donor sheet and a receptor sheet of a carbonless paper construction. The simulated donor sheet comprised a sheet of paper saturated with color-former of structure I, which was used to simulate a CB sheet with ruptured capsules. Pressure was then applied for 24 hours by placing 9 pounds of paper on top of the sheets, to simulate storage conditions of the paper packages. The formation of color on the receptor sheet, due to transfer of volatile color-former thereto, was used as an indication that the particular color-former was less than optimally desirable for carbonless paper constructions, i.e., was volatile. A compound was considered generally to be nonvolatile, within the meaning of the term as used herein to define the present invention and thus to define color-formers most acceptable for use in carbonless image transfer arrangements, if no color was formed after the simulated test was run for about 24 hours at 25° C. In some instances, if no color was formed after storage at room temperature (25° C.), successively higher temperatures were used, as for example 49° C., 60° C., and 71° C. […]

[3] = Color (Hunter coordinates) of Ni complex, swabbed on Ni-coated receptor (CF) sheet; type: physicochemical; set-up: key to Hunter coordinate a / Hunter Coordinates a: Hunter a: +a red, -a green; key to Hunter coordinate b / Hunter Coordinates b: Hunter b: +b yellow, -b blue; conditions: for Chroma: C=(a^2 +b^2)^1/2; for Chroma / Image Color / Hunter Coordinates L / Hunter Coordinates a / Hunter Coordinates b: Ni(II) complex; for Chroma / Image Color: swab concn. 1% (Table 2); for Hunter Coordinates L / Hunter Coordinates a / Hunter Coordinates b: swab concn. 1%, 45°/0° reflectance, illuminant C (Table 2)
Experimental: In general, the colors of the complexes, as listed in Table 2 and Experiments 4, 6, and 7 below, were determined by preparing a 1% solution of the color-former or mixture of color-formers in an appropriate solvent. Unless otherwise indicated, the solvent was composed of a mixture of tributyl phosphate (26.5%), diethyl phthalate (17.6%), and cyclohexane (55.9%). The images were formed by applying two stripes of the solution to a substrate coated with a Ni^2+ coated receptor sheet using a cotton tipped applicator swab. Rapid and complete development of the image was achieved by passing the sheet through a hot shoe adjusted to 102° C., making a revolution every 10 seconds. The visually observed colors were measured and recorded.
One method of color measurement is to determine the color's position in color space. One color space system is the Hunter System; see F. W. Billmeyer, Jr., and M. Saltzman, Principles of Color Technology; John Wiley & Sons; New York, N.Y.; Ch. 2 & 3, 1981. In this system three mutually perpendicular axes (L, a, and b) are needed to define a color. "L" (+z axis) represents the lightness or darkness of the image; "a" (x axis) represents the amount of red or green (+a is red, -a is green); and "b" (y axis) represents the amount of yellow or blue (+b is yellow, -b is blue). By measuring a material's L, a, and b values, the color of one sample can be compared with that of other samples. Another value used in the Hunter System is Chroma (C). Chroma is defined by the equation [C=(a^2 +b^2)^1/2 ] and represents the distance of the image coordinates from the origin. The greater the Chroma, the more intense the image. Chroma is used to compare images cf the same hue. Because the color of a sample is also dependent upon the color temperature of the illuminating source, the angle at which the sample is illuminated, the angle at which the illumination is reflected, and the angle of the retina illuminated, these all need to be specified. Many instruments have been developed to record these values. One such instrument is the HunterLab LabScan II. This instrument is capable of automatically determining the L, a, and b values for a given sample, and was used for the following examples.
The L, a, and b color coordinates of the more uniform stripe were measured for 45°/0° reflectance on a HunterLab LabScan II, secondary observer, using illuminant C. The observed (image) color and the Hunter coordinates for Ni^2+ complexes of the yellow color-formers of this invention are given in Table 2.
A 1% solution of the condensation product in the encapsulation fill mix was swabbed onto a carbonless paper CF sheet (sold by the 3M Co. St. Paul, Minn.) with a cotton swab. The reflectance spectra had Hunter coordinates of: […]

[4] = Solubility in capsule fill solvents; type: physicochemical; conditions: for Dye Solubility: 4320 min
Experimental: The encapsulation process requires the color-forming ligand be dissolved in a solvent or mixed solvents, because of the nature of the procedure. Formation of a microcapsule shell as by condensation of urea or melamine with an aldehyde such as formaldehyde or mixtures of aldehydes to form the capsule shell is carried out in an acidic aqueous medium and the color-former solution must be insoluble and unreactive to these reagents for the encapsulation to proceed. Solvents commonly used include tributyl phosphate, diethyl phthalate, and cyclohexane. […] As mentioned above, solubility of yellow color-formers exemplified by structure I in nonaqueous solvents such as those used in the encapsulation process may be increased by substituting alkyl, aryl, aralkyl, alkenyl, or such groups for the hydrogens on the various positions available in the structure I above.
as §1
Solubility in a solvent blend of tributyl phosphate, diethyl phthalate and cyclohexane (capsule solvents for preparing carbonless copy-paper) was 3% by weight. Thus the ligand is eminently suitable for encapsulation. The ligand is not volatile at 71 ° C. overnight.
*THE SOLUBILITY WAS DEEMED PREFERABLE IF IT WAS GREATER THAN 2% IN THE
FILL MIX AT ROOM TEMPERATURE FOR 3 DAYS. THE FILL MIX COMPRISED
TRIBUTYLPHOSPHATE (26.5%); DIETHYLPHTHALATE (17.6%); AND CYCLOHEXANE

[5] = Stability in concentrated hydrochloric acid; type: physicochemical
[6] = background art; cited from earlier work
[7] = Imaging of CB sheet with encapsulated color-former on Ni-coated CF sheet; type: physicochemical; conditions: carbonless paper capsules
Experimental: A precondensate solution was prepared comprising 192 g of formalin, 0.63 g of potassium tetraborate, 72 g of urea, and 328 g of soft water. The formalin was 37% formaldehyde and was added to a 1-liter flask equipped with a stirrer and heating mantle. The potassium tetraborate and urea were then added, and the mixture was heated to 70° C. The reaction was maintained at that temperature for 2.5-3.0 hr. The reaction mixture was then diluted with the water and allowed to cool. The precondensate solution, with about 24% solids, was then ready for use in the encapsulation process.
The precondensate and fill (ethanediimidic acid bis[hydrazide] and carrier or fill solvents) were combined to make capsules according to the following procedure. Sodium chloride (29.54 g) was added to the stirred precondensate solution and the temperature of the solution was adjusted to 20° C. The fill material (215 g) was added and full agitation was begun. After 5 minutes of stirring, 10% hydrochloric acid solution was added over 5 minutes in an amount such that the final pH of the reaction mixture was about 2.8. The reaction mixture was stirred for another 12 minutes. More of the 10% hydrochloric acid solution was added over a period of 12 minutes, in an amount such that the final pH of the solution was about […]. The reaction mixture was stirred at 20° C. for 1 hr, and then at 60° C. for 1-3 hr. The acidic solution was allowed to cool and adjusted to a pH of 7 by addition of concentrated ammonium hydroxide solution (28%). The capsule slurry could then be stored for later use.
The capsule slurry (10 g) was added to 65 g of a 1.5% aqueous sodium alginate solution. The mixture was applied to a coated paper using a bar coater with a 3 mil gap. The coating was allowed to dry at room temperature.
A 2% solution of the compound 1 in the capsule fill solvent of diethyl phthalate, tributyl phosphate, and cyclohexane was encapsulated by the procedure described in Experiment 5 above. A coating mixture of 10.0 g of capsule slurry, 2.5 g of Dow-620 butadiene-styrene latex, and 62.5 g of 1.5% sodium alginate slurry was coated onto paper by the draw down procedure described above.
A 7.5% solution comprising 5.45% N-(5-octanoylamido-2-metylpentyl)dithiooxamide/N-(5-octanoylamido-4-methylpentyl)dithiooxamide (G') mixture and 2.05% N,N'-di(5-octanoylamido-2-methylpentyl)dithiooxamide/N-(5-octanoylamido-2- methylpentyl)-N'-(5-octanoylamido-4-methylpentyl)dithiooxamide/N,N'-(5-octanoylamido-2-methylpentyl)dithiooxamide (G) mixture in the fill solvent mixture of diethyl phthalate, tributyl phosphate, and cyclohexanone was encapsulated by the procedure described above. A coating mixture of 10.0 g of capsule slurry, 2.5 g of Dow 620 styrene-butadiene latex, and 62.5 g of 1.5% sodium alginate solution was coated onto paper by the draw down procedure described in Experiment 5 above.
A blend was prepared of 10 g of the capsule slurry containing compound 1, with 10 g of capsule slurry containing 5.45% N-(5-octanoylamido-2-methylpentyl)dithiooxamide/N-(5-octanoylamido-4-methylpentyl)dithiooxamide (G') mixture and 2.05% N,N'-di(5-octanoylamido-2-methylpentyl)dithiooxamide/N-(5-octanoylamido-2- methylpentyl)-N'-(5-octanoylamido-4-methylpentyl)dithiooxamide/N,N'-di(5-octanoylamido-4-methylpentyl)dithiooxamide (G) mixture. […]

[8] = 1% solution in encapsulation fill mix swabbed onto 3M CF sheet (Experiments 2, 3)

C=CCc1cccc(C=NN=C(N)C(N)=NN=Cc2cccc(CC=C)c2O)c1O [Compound 16, ethanediimidic acid bis[(3-allylsalicylidene)hydrazide]]
color formation when reacted with zinc rosinate [1]: does not form color
volatility [2]: not volatile
Hunter coordinate L [3, 8]: 82.5
Hunter coordinate a [3, 8]: -6.64
Hunter coordinate b [3, 8]: 41.0
color observed on the CF sheet ([3]; 1% solution swabbed (Experiments 2, 3)): yellow
Chroma [3]: 41.6
Image Color [3]: Yellow
Hunter Coordinates L [3]: 82.5
Hunter Coordinates a [3]: -6.6
Hunter Coordinates b [3]: 41.0
Solubility in a solvent blend of tributyl phosphate, diethyl phthalate and cyclohexane [4]: 3 % by weight
solubility in encapsulation / capsule solvents (in words) [4]: good solubility in capsule solvents
Dye Solubility [4]: > 3.0%
stability in concentrated hydrochloric acid [5]: stable

S=C(NCc1ccccc1)C(=S)NCc1ccccc1 [H, N,N'-di(benzyl)dithiooxamide]
image color with metal [6]: blue-purple

NC(=NN=Cc1ccccc1O)C(N)=NN=Cc1ccccc1O [Compound 9, Ethanediimidic acid bis[(2-hydroxyphenylmethylene)hydrazide]]
Chroma [3]: 40.7
Image Color [3]: Yellow
Hunter Coordinates L [3]: 84.5
Hunter Coordinates a [3]: -9.7
Hunter Coordinates b [3]: 39.5
color developed upon imaging [7]: weak and often unacceptable
solubility in encapsulation / capsule solvents (in words) [4]: too low in the solvent blend used in many carbonless paper capsules
Dye Solubility [4]: < 2.0%

NC(=NN=Cc1ccco1)C(N)=NN=Cc1ccco1 [Compound 12, Ethanediimidic acid bis[(furylmethylene)hydrazide]]
Chroma [3]: 25.8
Image Color [3]: Yellow
Hunter Coordinates L [3]: 89.4
Hunter Coordinates a [3]: -10.6
Hunter Coordinates b [3]: 23.5
Chroma (in words) ([3]; nickel complex, description): intermediate between that of aliphatic and the preferred o-substituted ligands
Dye Solubility [4]: < 2.0%

NC(=NN=Cc1ccccn1)C(N)=NN=Cc1ccccn1 [Compound 14, Ethanediimidic acid bis[(2-pyridylmethylene)hydrazide]]
Chroma [3]: 35.0
Image Color [3]: Yellow
Hunter Coordinates L [3]: 86.5
Hunter Coordinates a [3]: -11.0
Hunter Coordinates b [3]: 33.2
Chroma (in words) ([3]; nickel complex, description): intermediate between that of aliphatic and the preferred o-substituted ligands
Dye Solubility [4]: < 2.0%

NC(=NN=Cc1cccs1)C(N)=NN=Cc1cccs1 [Compound 13, Ethanediimidic acid bis[(2-thienylmethylene)hydrazide]]
Image Color [3]: Brown
Hunter Coordinates L [3]: 72.6
Hunter Coordinates a [3]: 11.2
Hunter Coordinates b [3]: 13.9
Chroma (in words) ([3]; nickel complex, description): intermediate between that of aliphatic and the preferred o-substituted ligands
Dye Solubility [4]: < 2.0%

CCCCCCC=NN=C(N)C(N)=NN=CCCCCCC [Compound 15]
Chroma [3]: 11.6
Hunter Coordinates L [3]: 89.9
Hunter Coordinates a [3]: -4.2
Hunter Coordinates b [3]: 10.8
color of nickel / transition metal coordination compound (in words) ([3]; description): very weakly yellow; also recorded: weak yellow
measured reflectance density (in words) ([3]; nickel complex): low
Chroma (in words) ([3]; nickel complex, description): low and low Chroma value
Dye Solubility [4]: > 2.0%
